From patent US4540428A (priority 1983, dated 1985)

Legend:
[1] = test system: soil urease; assay: Urea hydrolyzed as a function of time in soil at 35° C. (procedure of Example VI, FIG. 1); assay type: biochemical; settings: 10 micrograms of urease inhibitor per gram of soil; for urease inhibiting activity at 35° C. (in words): soil at 35° C. (95° F.), period of 12 days, sampled every two days
Protocol: The drawing is a graph of urea hydrolyzed as a function of time at 35° C. using 10 micrograms of urease inhibitor per gram of soil.
Certain compounds were evaluated to determine their effectiveness as urease inhibitors. The inhibition tests were run in a New York State soil (Cazenovia sandy loam, pH 7.2). Evaluations (run in triplicate) consisted of applying 800 micrograms of test compound in 5 mL of water and 42.8 mg urea in 1 mL of water to 20 g of air-dry soil in a glass bottle. The bottle was capped with perforated aluminum foil and incubated at 25° C. for 3 days prior to extraction with 100 mL of 2M KCl solution containing 0.5 mg of phenylmercuric acetate. The extracts were then analyzed for remaining urea using an autoanalyzer. Percent inhibition was calculated as [formula] where A is urea recovered from unincubated sample (urea added to soil and immediately extracted); B is urea recovered from inhibited sample; and C is urea recovered from the control (uninhibited sample).
Employing the procedure of Example VI, the urease inhibiting activity at 35° C. of the prior art urease inhibitor, phenyl phosphorodiamidate, and N-(2-chloroethyl)phosphoric triamide were evaluated. In the evaluation, soil samples were taken every two days and analyzed for urea content.

[2] = test system: soil urease; assay type: biochemical; settings: for % Inhibition 40 microgram per gram soil: pH 7.2
[3] = test system: urease; settings: stated as well known; cited from earlier work

Q: With `NP(N)(=O)NCCCl` [Experiment 1, N-2-Chloroethyl Phosphoric Triamide] as the compound, how does the “urease inhibiting activity at 35° C. (in words)” value [1] read?
A: The value was “excellent inhibitor”.

Q: For `NP(N)(=O)NCCCl` [Experiment 1], which “% Inhibition 1 microgram per gram soil” value [2] is on record?
A: Its value is 77%.

Q: And the “% Inhibition 40 microgram per gram soil” value [2]?
A: The value was 100%.

Q: For `NP(N)(=O)NCCCBr` [Experiment 3], which “% Inhibition 1 microgram per gram soil” value [2] is on record?
A: The value was 83%.

Q: And the “% Inhibition 40 microgram per gram soil” value [2]?
A: Its value is 99%.

Q: With `NP(N)(=O)Oc1ccccc1` [phenyl phosphorodiamidate] as the compound, how does the “urease inhibiting activity at 35° C. (in words)” value [1] read?
A: Its value is “much less effective”.

Q: And the “time to essentially complete urea hydrolysis” value ([1]; soil at 35° C.)?
A: Its value is “essentially complete urea hydrolysis after only six days”.

Q: And the “inhibitory effect on urease at 25° C. (in words)” value [3]?
A: Its value is “excellent inhibitory effect”.
